From patent US20180008587A1, “THIOHYDANTOIN ANDROGEN RECEPTOR ANTAGONISTS FOR THE TREATMENT OF CANCER” (Jaressen Pharmaceutica NV, priority 2016, published 2018)
Positions count from the first letter of the chain named.

Experiments:
Format in all cases: cell-based
[1] = target: T1, F876L mutant Androgen Receptor (AR-F876L) (Homo sapiens, UniProt P10275, F877L); assay: LNCaP-AR-F876L AG reporter assay (ARE firefly luciferase, agonist mode); details: for Emax: maximum % stimulation (agonist response) over tested concentration range, read-out: LNCaP-AR-F876L AG MAX % Stim; for EC50: agonist mode, −Log10(EC50 [Molar]), read-out: LNCaP-AR-F876L AG pEC50 (converted)
T1 construct: expressed in transfected cells; host or cells: LNCaP (LNCaP F876L)
T1 sequence (P10275 1-920 F877L): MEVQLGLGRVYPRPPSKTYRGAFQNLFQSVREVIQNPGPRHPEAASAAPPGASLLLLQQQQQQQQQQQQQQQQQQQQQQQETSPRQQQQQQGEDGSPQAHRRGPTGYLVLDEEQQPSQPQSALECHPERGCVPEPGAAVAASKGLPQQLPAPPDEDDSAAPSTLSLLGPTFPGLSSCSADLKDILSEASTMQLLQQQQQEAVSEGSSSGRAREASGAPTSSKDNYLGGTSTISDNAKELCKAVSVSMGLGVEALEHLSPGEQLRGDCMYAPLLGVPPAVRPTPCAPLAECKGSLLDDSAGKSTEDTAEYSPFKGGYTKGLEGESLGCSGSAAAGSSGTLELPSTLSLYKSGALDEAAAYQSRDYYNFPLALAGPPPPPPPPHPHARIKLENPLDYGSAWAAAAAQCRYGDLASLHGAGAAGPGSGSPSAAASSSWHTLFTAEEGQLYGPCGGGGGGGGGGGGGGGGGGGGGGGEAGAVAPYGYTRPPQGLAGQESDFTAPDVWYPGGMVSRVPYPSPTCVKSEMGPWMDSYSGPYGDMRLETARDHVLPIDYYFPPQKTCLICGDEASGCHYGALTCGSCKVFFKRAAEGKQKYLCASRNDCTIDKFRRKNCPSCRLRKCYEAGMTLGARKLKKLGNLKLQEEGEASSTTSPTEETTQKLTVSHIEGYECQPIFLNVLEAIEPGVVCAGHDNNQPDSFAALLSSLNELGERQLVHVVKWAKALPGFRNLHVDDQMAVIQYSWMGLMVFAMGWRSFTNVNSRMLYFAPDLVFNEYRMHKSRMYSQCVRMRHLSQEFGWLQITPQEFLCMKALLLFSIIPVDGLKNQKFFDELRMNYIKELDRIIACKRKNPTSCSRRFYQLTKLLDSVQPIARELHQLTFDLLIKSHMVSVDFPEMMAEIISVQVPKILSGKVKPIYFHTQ
Summary of the method: (§1)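 Cells: stable LNCaP pools, AR-wt or AR-F876L, in charcoal-stripped serum. Agonist challenge for antagonist mode was 400 pM (WT) and 600 pM (F876L). Luminescence was measured after 20-24 h incubation.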

[2] = target: T1, F876L mutant Androgen Receptor (AR-F876L); assay: LNCaP-AR-F876L ANT reporter assay (ARE firefly luciferase, antagonist mode); details: for Emax: maximum % inhibition of R1881 control response over tested concentration range, read-out: LNCaP-AR-F876L ANT MAX % Inh; for IC50: read-out: LNCaP-AR-F876L ANT pIC50 (converted)
Summary of the method: (§2)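 LNCaP cells stably expressing wild-type or F876L AR (puromycin-selected pooled populations) were cultured in charcoal-stripped serum medium. In antagonist mode, agonist challenge was 400 pM for wild-type and 600 pM for F876L.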

[3] = target: T2, wild-type Androgen Receptor (AR-wt) (Homo sapiens, UniProt P10275); assay: LNCaP-AR-wt ANT reporter assay (ARE firefly luciferase, antagonist mode); details: for Emax: maximum % inhibition of R1881 control response over tested concentration range, read-out: LNCaP-AR-wt ANT MAX % Inh; for IC50: antagonist mode, 400 pM R-1881 challenge, −Log10(IC50 [Molar]), read-out: LNCaP-AR-wt ANT pIC50 (converted)
T2 construct: expressed in transfected cells; host or cells: LNCaP (LNCaP AR (cs))
T2 sequence (P10275 1-920): T1 sequence (P10275 1-920 F877L) with L877F
Summary of the method: as §2

[4] = target: T2, wild-type Androgen Receptor (AR-wt); assay: LNCaP-AR-wt AG reporter assay (ARE firefly luciferase, agonist mode); details: for Emax: maximum % stimulation (agonist response) over tested concentration range, read-out: LNCaP-AR-wt AG MAX % Stim; for EC50: agonist mode, −Log10(EC50 [Molar]), read-out: LNCaP-AR-wt AG pEC50 (converted)
Summary of the method: as §1

Row | Structure (SMILES) | Emax [1] | Emax [2] | Emax [3] | Emax [4] | EC50 [1] | IC50 [2] | IC50 [3] | EC50 [4]
1 | CN1CCC(Oc2ccc(N3C(=S)N(c4cnc(C#N)c(C(F)(F)F)c4)C(=O)C34CCC4)cc2)CC1 [Cpd 85, 5-[8-[4-[(1-methyl-4-piperidyl)oxy]phenyl]-5-oxo-7-thioxo-6,8-diazaspiro[3.4]octan-6-yl]-3-(trifluoromethyl)pyridine-2-carbonitrile] | 0.8% | 99.8% | 101% | 0.2% | – | – | – | –
2 | N#Cc1ncc(N2C(=O)C3(CCC3)N(c3ccc(C(=O)NCCCO)c(F)c3)C2=S)cc1C(F)(F)F [Cpd 40, 4-[6-[6-cyano-5-(trifluoromethyl)-3-pyridyl]-5-oxo-7-thioxo-6,8-diazaspiro[3.4]octan-8-yl]-2-fluoro-N-(3-hydroxypropyl)benzamide] | 0.2% | 99.5% | 101% | -0.3% | > 15.1 µM | 162 nM | 240 nM | > 15.1 µM
3 | N#Cc1ncc(N2C(=O)C3(CCC3)N(c3ccc(OC4CCNCC4)cc3)C2=S)cc1C(F)(F)F [Cpd 35, 5-[5-oxo-8-[4-(4-piperidyloxy)phenyl]-7-thioxo-6,8-diazaspiro[3.4]octan-6-yl]-3-(trifluoromethyl)pyridine-2-carbonitrile] | 0% | 101% | 97.5% | -0.1% | > 15.1 µM | 145 nM | 240 nM | > 15.1 µM
